# Laboratory results published in US10273218B2, “BCL-3 inhibitors” (University College Cardiff Consultants Limited, priority 2014, dated 2019).
# Legend:
# [1] = tested on: MDA-MB-231-Luc highly metastatic human breast cancer cells; assay: in vivo metastasis mouse model, disease free survival; parameters: species or system Nude mice; conditions: 3.5 mg/Kg once daily for 10 days; MDA-MB-231-Luc i.v.; monitored up to 49 days
# Procedure: Nude mice are injected i.v. with 200,000 highly metastatic human breast cancer cells expressing luciferase (MDA-MB-231-Luc) then are given a compound of Formula (I) or Formula (Ia) once daily for about 10 days and are monitored for tumours by total body scan using Xenogen-IVIS. Mice with a luciferase signal above background in repeated scans in any part of their torso are scored as having metastatic disease. Total light emission in the abdominal region is quantified at time points up to 49 days post surgery and plotted as mean total light yield.
# Nude mice were injected i.v. with 200,000 highly metastatic human breast cancer cells expressing luciferase (MDA-MB-231-Luc) then given 3.5 mg/Kg of compound 12, reference compound A, or Reference compound B once daily for 10 days and monitored for tumours by total body scan using Xenogen-IVIS. Mice with a luciferase signal above background in repeated scans in any part of their torso were scored as having metastatic disease. Total light emission in abdominal region was quantified at time points up to 49 days post surgery and plotted as mean total light yield. Control n=12, Reference compound A n=10, Reference compound B n=4; compound 12 n=4.
# [2] = tested on: human breast cancer (MDA-MB-231); assay: mouse Model 4 (tumour growth at transplantation site), MDA-MB-231; format: in vivo, mice; conditions: 3.5 mg/kg intraperitoneal injection daily; MDA-MB-231 subcutaneous; caliper tumour volume; listed as compound 12
# Procedure: (§1) In all experiments, each compound was administered by intraperitoneally at 3.5 mg/kg.
# (§2) Another model (Model 4) studied the effect of the compound's ability to inhibit the growth of tumour cells at the transplantation site. Human tumour cell lines were injected subcutaneously into recipient mice, followed 2 days later by single daily intraperitoneal injections of a compound (3.5 mg/kg in 1% DMSO) for the entire course of the experiment. Tumour burden was monitored longitudinally for up to 12 weeks in vivo by palpation and caliper measurements of tumour volume, and subsequently histology performed on tumours at the end of the experiment.
# (§3) Model 4 tested the effect of compounds of the application to inhibit the growth of tumour cells at the transplantation site. Human tumour cell lines were injected subcutaneously into recipient mice, followed 2 days later by single daily intraperitoneal injections of Bcl3 inhibitor (3.5 mg/kg in 1% DMSO) for the entire course of the experiment. Tumour burden was monitored longitudinally for up to 12 weeks in vivo by palpation and caliper measurements of tumour volume, and subsequently histology performed on tumours at the end of the experiment.
# FIGS. 6 and 7 show the comparative effect of compound 12 (3.5 mg/kg intraperitoneal injection) on Model 4 in human breast cancer (MDA-MB-231) and human colorectal cell lines (SW480), respectively. […]
# [3] = tested on: human colorectal cell lines (SW480); assay: mouse Model 4 (tumour growth at transplantation site), SW480; format: in vivo, mice; conditions: 3.5 mg/kg intraperitoneal injection daily; SW480 subcutaneous; caliper tumour volume
# Procedure: as §1, §2, §3
# FIGS. 6 and 7 show the comparative effect of compound 12 (3.5 mg/kg intraperitoneal injection) on Model 4 in human breast cancer (MDA-MB-231) and human colorectal cell lines (SW480), respectively.
# [4] = tested on: MDA-MB-231 human breast cancer cells; assay: mouse Model 2 (colonization, growth and spread of secondary lesions at distal sites); format: in vivo, mice; conditions: 3.5 mg/kg intraperitoneally daily
# Procedure: as §1
# Another model (Model 2) tested the effect of the compound's ability to inhibit the colonization and subsequent growth and spread of secondary lesions at distal sites. Human tumour cell lines were injected into the bloodstream of recipient mice, followed 2 days later by single daily intraperitoneal injections of the compound (3.5 mg/kg in 1% DMSO) for the entire course of the experiment. Tumour burden was monitored longitudinally for up to 8 weeks in vivo by live luminescence imaging, and subsequently histology performed on affected organs at the end of the experiment.
# MDA-MB-231 human breast cancer cells were used in each of the three xenograft models of metastatic breast cancer.
# [5] = tested on: MDA-MB-436 cells (triple negative breast invasive ductal carcinoma); assay: mouse Model 4 (tumour growth at transplantation site), MDA-MB-436; format: in vivo, mice; conditions: 3.5 mg/kg in 1% DMSO intraperitoneal daily; MDA-MB-436 subcutaneous; caliper tumour volume
# Procedure: as §2
# as §3, with “MDA-MB-436 cells” for “Human tumour cell lines”, “compound 12” for “Bcl3 inhibitor”
smiles,measurement,setting,value
"COc1ccc(C(=O)Nc2ccccc2C(=O)NCCN2CCOCC2)c(F)c1 [Compound 12, 2-fluoro-4-methoxy-N-(2-((2-morpholinoethyl)carbamoyl)phenyl) benzamide]",disease free survival,[1],100%
same,tumour growth at the transplantation (xenograft) site,[2],significant reductions in average tumour growth
same,average tumour growth at the transplantation site,[3],significant reductions in average tumour growth
same,effect on subsequent growth and spread of the secondary tumours (FIG. 9),[4],significant effects
same,average tumour growth at the transplantation site,[5],significant reductions in average tumour growth
